Test results: US20250011296A1, “MODULATORS OF MOLECULAR TARGETS EXPRESSED IN METABOLIC AND INFLAMMATORY DISORDERS” (Ohio State Innovation Foundation, priority 2021, published 2025)

Molecular target: T1, PARP-5 (tankyrase-1, TNKS1) (Homo sapiens, UniProt O95271)
T1 construct: purchased BPS Bioscience Inc
T1 sequence (O95271 1-1327): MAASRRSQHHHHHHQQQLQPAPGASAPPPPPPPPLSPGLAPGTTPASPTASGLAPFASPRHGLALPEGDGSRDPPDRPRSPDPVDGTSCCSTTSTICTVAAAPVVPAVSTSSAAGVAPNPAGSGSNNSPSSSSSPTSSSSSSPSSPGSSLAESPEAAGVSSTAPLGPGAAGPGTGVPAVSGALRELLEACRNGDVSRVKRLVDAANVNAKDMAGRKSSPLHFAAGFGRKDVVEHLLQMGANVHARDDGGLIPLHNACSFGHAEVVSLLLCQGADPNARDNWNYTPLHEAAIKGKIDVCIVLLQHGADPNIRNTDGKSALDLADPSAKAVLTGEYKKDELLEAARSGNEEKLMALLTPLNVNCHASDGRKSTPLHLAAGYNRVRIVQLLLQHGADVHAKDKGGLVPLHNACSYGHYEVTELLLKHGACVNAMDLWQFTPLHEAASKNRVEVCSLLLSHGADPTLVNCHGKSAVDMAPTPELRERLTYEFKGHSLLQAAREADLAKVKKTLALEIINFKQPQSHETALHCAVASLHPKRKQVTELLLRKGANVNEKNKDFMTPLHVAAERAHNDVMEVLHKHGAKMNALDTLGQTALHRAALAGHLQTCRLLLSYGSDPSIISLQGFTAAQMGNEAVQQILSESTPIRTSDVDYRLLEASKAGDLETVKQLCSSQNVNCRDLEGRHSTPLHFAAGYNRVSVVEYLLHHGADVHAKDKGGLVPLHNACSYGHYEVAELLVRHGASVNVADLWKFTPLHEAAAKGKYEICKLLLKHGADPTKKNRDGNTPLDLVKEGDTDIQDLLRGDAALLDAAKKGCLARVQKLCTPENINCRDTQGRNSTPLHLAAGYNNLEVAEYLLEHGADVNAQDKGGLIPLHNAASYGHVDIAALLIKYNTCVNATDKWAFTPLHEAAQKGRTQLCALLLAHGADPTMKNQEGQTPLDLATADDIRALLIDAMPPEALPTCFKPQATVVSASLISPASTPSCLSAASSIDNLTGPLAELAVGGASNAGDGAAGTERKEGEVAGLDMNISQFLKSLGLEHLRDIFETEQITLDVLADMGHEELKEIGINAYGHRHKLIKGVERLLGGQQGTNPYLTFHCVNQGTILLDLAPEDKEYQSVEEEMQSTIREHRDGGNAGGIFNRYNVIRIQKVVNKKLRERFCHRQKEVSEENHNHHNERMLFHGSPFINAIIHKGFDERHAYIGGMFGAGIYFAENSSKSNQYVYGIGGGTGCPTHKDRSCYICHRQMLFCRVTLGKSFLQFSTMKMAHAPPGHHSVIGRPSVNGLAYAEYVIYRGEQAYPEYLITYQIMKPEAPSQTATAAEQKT
Test: PARP-5 enzyme assay (TNKS1 Histone Ribosylation Assay kit)
Format: biochemical
Conditions: for PARP-5 inhibitory activity / PARP-5% inhibition: 50 μg/mL; for PARP-5% inhibition: Table 20 summary; for inhibition at 50 µg/mL: read-out: PARP-5% inhibition, Table 15, isolates at 50 μg/mL
Experimental: Poly (ADP-ribose) polymerase 5 (PARP-5, also known as tankyrase-1 or TNKS1), is a nuclear enzyme involved in repairing single strand DNA breaks. Agonists of PARP-5 induce DNA repair, but the cost of PARP-5 activation is to slow glycolysis and limit GLUT-4-mediated glucose uptake. Small-molecule inhibition of the PARP-5 enzyme potentiates antidiabetic activities by increasing glucose uptake and insulin sensitivity. Extracts and compounds from the arils of M. fragrans were tested by using the TNKS1 Histone Ribosylation Assay kit (BPS Bioscience Inc.) according to the kit protocol. First, microplate wells were coated with immobilized histone substrate (50 μL) overnight at 4° C., then washed 3 times with PBS-Tween (200 μL). The wells were treated with blocking buffer and washed 3 times with PBS-Tween. The reaction mixture, which contained TNKS assay buffer and NAD+, was added to each sample well. Diluted sample solutions were added to the corresponding wells to achieve final concentrations of 50 μg/mL, followed by TNKS1 enzyme. After 1 hour, the plates were washed 3 times with PBS-Tween and incubated with primary antibody (1:800) for another hour. Following PBS-Tween wash, the secondary-HRP antibody was added (1:1000), incubated for 30 minutes, and finally chemiluminescent substrate was added. The plates were immediately measured for luminescence in the FLUOstar Optima plate reader (BMG Labtechnologies, GmbH, Inc.). The positive control included TNKS1 enzyme, NAD+, and DMSO; the substrate control included enzyme and DMSO; and the negative control included NAD+ and DMSO.297,304 The mace ethyl acetate fractions were screened for PARP-5 inhibition (Table 4).

| PARP-5 inhibitory activity | PARP-5% inhibition | inhibition at 50 µg/mL | SMILES |
| --- | --- | --- | --- |
| not effective PARP-5 inhibitors | <50% | < 50% | C/C=C/c1cc(OC)c2c(c1)[C@H](C)[C@@H](c1ccc3c(c1)OCO3)O2 [Compound 41, licarin B] |
| not effective PARP-5 inhibitors | <50% | < 50% | C/C=C/c1cc(OC)c2c(c1)[C@H](C)[C@@H](c1ccc(O)c(OC)c1)O2 [Compound 42, licarin A] |
